Data on 1 compound can be found in patent publication US20210267948A1, “TREATMENT OF CANCER” (CITY OF HOPE, priority 2017, published 2021).

One series has as its system HCC1937+BRCA1. Nature of the series: Microarray gene ontology enrichment, HCC1937+BRCA1. It is filed as cell-based, human. The settings on record: genes downregulated, HCC1937 + BRCA1-COH29 vs HCC1937 + BRCA1. The method, then: FDR values were calculated using the method of Benjamini and Hochberg (28) from the distribution of ANOVA with Linear Contrastp-values. Gene ontology (GO) (29) enrichment analysis was performed within PARTEK® GENOMICS SUITE™, and GO categories were defined significant with a Fisher Exact test p-value<0.05.
To identify the mechanism through which COH29 preferentially lyses BRCA1-mutant human cancer cells, genome-wide microarray analysis was performed using the AFFYMETRIX® GENECHIP® microarray platform to identify the gene expression profiles and pathways affected by COH29 treatment. The RNA expression profile of COH29 treated HCC1937 breast cancer cells lacking BRCA1 was compared with that of COH29 treated HCC1937+BRCA1 cells. […] For example, DNA ligation involved in DNA repair is more strongly enriched in HCC1937 cells which may relate to the phenotypic effect.

The nature of series [1]: First-in-human Phase I dose escalation safety study. It is filed as in vivo. The source says: First-in-human Phase I, single site, dose escalation, safety study.
Inclusion Criteria: (1) Male and female patients≥18 years of age with advanced, histologically confirmed solid tumors refractory to standard therapy or for which no standard therapy exists; (2) Patients must have measurable or evaluable disease; (3) Patients may be entered if they have received prior radiation therapy involving ≤30% of the bone marrow; (4) Patients may be enrolled with a history of treated brain metastases that are clinically stable for ≥4 weeks prior to enrollment; (5) ECOG Performance Status of ≤2; (6) Life expectancy of greater than 12 weeks as determined by treating clinician assessment; and (7) Adequate organ function per standard laboratory assessments.
Exclusion Criteria: (1) Patients must not have received prior chemotherapy or radiation for ≥4 weeks before study treatment initiation; (2) Patients unable or unwilling to swallow pill; (3) Active heart disease including myocardial infarction within previous 3 months, symptomatic coronary artery disease or heart block, or uncontrolled congestive heart failure; and (4) Women who are pregnant or actively breast-feeding.
Intrapatient dose escalation is allowed and design reverts to standard 3+3 if 2 moderate toxicities or 1 dose limiting toxicity (DLT) is encountered.
With respect to the DLT definition, Grade≥3 non-hematological toxicity will be considered dose limiting with the following clarifications: Grade 3 diarrhea will only be considered dose limiting if it is refractory to treatment and unable to be corrected to grade 1 or less within 24 hours. Bloody or grade 4 diarrhea will be dose limiting; Grade 3 nausea and vomiting will only be considered dose limiting if it is refractory to anti-emetic therapy and unable to be corrected to grade 1 or less within 24 hours; Grade 3 rise in creatinine, not corrected to grade 1 or less within 24 hours with IV fluids will be considered dose limiting. All grade 4 rises in creatinine will be dose limiting; and Grade 3 electrolyte toxicities unable to be corrected to grade 1 or baseline within 24 hours will be considered dose limiting. Tumor pain will not be considered dose limiting unless it is refractory to optimal treatment with analgesics. With respect to Grade 4, the following will be considered: Grade 4 thrombocytopenia; Grade 4 neutropenia lasting ≥5 days or febrile neutropenia; Grade 4 hemolysis; Treatment delay>2 weeks as a result of unresolved toxicity; and any degree of anemia, leucopenia in the absence of grade 4 neutropenia lasting ≥5 days, or lymphopenia will not be considered dose limiting.
Patients receive oral COH29 twice a day for 21 days of a 28-day cycle. Dose levels range from 200 to 2400 mg per day of administration. Dose escalation is pursued utilizing a Simon's accelerated titration design, which allows skipping of dose levels (dose doubling) during the accelerated dose-finding phase. PD assessment includes measurement of plasma CK18 levels to determine degree of cellular apoptosis, evaluation of dNTP pool levels in peripheral blood mononuclear cells (PBMCs) to evaluate RNR inhibition, as well as measurement of PAR expression in PBMCs to assess PARP inhibition. Quantitation of tumor RRM2 expression using dual-color immunohistochemistry is explored as a predictive biomarker of anti-tumor response to COH29.

Series [2] has as its system MCF7 cells containing wild-type p53. Nature of the series: DNA damage checkpoint Western blot, MCF-7. It is filed as cell-based, human. The method, then:
FIG. 6. COH29 treatment activates DNA damage checkpoint. The effect of COH29 treatment on DNA damage checkpoint proteins in human breast cancer cells expressing wt p53 (MCF-7) or defective for p53 (MCF-7p53−/−), and in triple-negative breast cancer cells (MDA-MB-468) assessed by Western Blot.
For subcellular fractionation, cells were trypsinized and washed with cold PBS solution twice. After centrifugation at 1,200 g for 5 min, cells were incubated in buffer (50 mM HEPES, pH 7.5, 150 mM NaCl, 1 mM EDTA) containing 0.2% NONIDET™ P-40 (NP-40), supplemented with protease inhibitors (5 μg/ml each of pepstatin, leupeptin, and aprotinin) and phosphatase inhibitors on ice for 5 min. Following centrifugation at 1,000 g for 5 min, the supernatant was collected (i.e., cytoplasmic fraction) and pellets were washed with the same buffer twice. The washed samples were extracted for 40 min on ice with fractionation buffer containing 0.5% NP-40 for nuclear fraction. All the samples were sonicated and clarified by centrifugation at 16,000 g for 15 min. Protein concentrations of all fractions were determined with Bio-Rad Protein Assay (Bio-Rad Laboratories, Hercules, Calif.). Immunoblotting was performed as described previously (21,22). […] The immunoblots were visualized on film with the West-Q chemi-luminescence kit (GenDEPOT, Barker, Tex.).

With `O=C(Nc1nc(-c2ccc(O)c(O)c2)c(-c2ccccc2)s1)c1ccc(O)c(O)c1` [COH29, N-(4-(3,4-dihydroxyphenyl)-5-phenylthiazol-2-yl)-3,4-dihydroxybenzamide], in the series with HCC1937+BRCA1, the “Genes (n): DNA ligation involved in DNA repair” value is listed as 3, the “Genes (n): DNA repair” value was determined as 44, the “Genes (n): DSB repair” value came out at 14 and the “Genes (n): DSB repair via HR” value was found to be 9. In the series with HCC1937+BRCA1, the “Genes (n): DSB repair via NHEJ” value was found to be 3. Also, the “realtime PK monitoring vs AUC safety threshold” value in series [1] (every patient, cycle 1) was “no exceeding of AUC safety threshold”. The “toxicity / DLT” value in series [1] (first patient, dose level 1, 100 mg twice a day) is “without any DLT”. Further, the “toxicity / DLT” value in series [1] (fourth patient, dose level 7, 800 mg twice a day) was “moderate toxicity of grade 2 diarrhea”. For the same compound, the “toxicity / DLT” value in series [1] (second patient, dose level 3, 200 mg twice a day) is given as “moderate toxicity of grade 2 skin rash”. Besides, the “toxicity / DLT” value in series [1] (third patient, dose level 5, 400 mg twice a day) is “without any DLT”. Moreover, in series [2], the “DNA damage checkpoint (phosphorylation of ATM, CHK1, CHK2)” value is “activated the DNA damage checkpoint” and the γ-H2AX level entry was “increase”.
